Assay results reported in PMC10591846 (Cell reports, 2023).

Legend:
[1] = test system: KLHDC10; experiment: In vitro peptide binding to KLHDC10; conditions: Figure S12
[2] = biological target: T1, Pirh2 (Homo sapiens, UniProt Q96PM5); experiment: In vitro peptide binding to Pirh2; conditions: Figure S12
T1 sequence (Q96PM5 1-261): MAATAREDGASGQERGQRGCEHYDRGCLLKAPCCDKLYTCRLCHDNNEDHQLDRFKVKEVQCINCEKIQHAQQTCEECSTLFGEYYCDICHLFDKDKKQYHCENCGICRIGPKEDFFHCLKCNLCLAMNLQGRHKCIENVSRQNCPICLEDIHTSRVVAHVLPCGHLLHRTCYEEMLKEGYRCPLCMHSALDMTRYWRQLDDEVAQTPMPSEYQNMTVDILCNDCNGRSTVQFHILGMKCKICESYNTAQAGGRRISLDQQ

## KHKLEQLRNSCA
[1]
  binding to KLHDC10 in vitro: did not bind
[2]
  binding to Pirh2 in vitro: did not bind
